Where two headings read alike, the source gives them in different places.
Key:
[1] = system: t-PA mRNA expression in human umbilical vein endothelial cells (HUVECs); experiment: In vitro dose response: t-PA mRNA (and protein) expression in HUVEC after 24 h; assay type: cell-based
Procedure: Human umbilical vein endothelial cells (HUVECs) were prepared by collagenase treatment of fresh umbilical cords (Jaffe, E. A., et al. J Clin Invest 52, 2745-2756 (1973)) obtained from the maternity ward of the Sahlgrenska University hospital, Gotheburg, Sweden. Cells were cultured in EGM-2 medium (Lonza, Basel, Switzerland) and all experiments were performed in passage 1 of subcultivation. Confluent HUVECs were exposed to 10 nM-10 μM of Vorinostat (Selleck Chemicals, Houston, Tex., USA) in complete medium for 24 h. After 24 h, cells and conditioned media were harvested.
(§1) Total RNA was prepared using RNeasy Mini RNA kit (Qiagen, Hilden, Germany) and genomic DNA was removed using RNase-free DNase I set (Qiagen). Levels of t-PA mRNA were analyzed with real-time RT-PCR, performed on an Applied Biosystems 7500 Fast Real-Time PCR System using cDNA and Taqman reagents obtained from Applied Biosystems (Foster City, Calif., USA). Hypoxanthine phosphoribosyl transferase (HPRT, Assay number Hs99999909_m1, Applied Biosystems) was used as endogenous internal standard.
(§2) Endothelial cells in culture are known to constitutively secrete the majority of synthesized t-PA making conditioned media a suitable source for quantification of t-PA protein. Conditioned medium from cell cultures was collected, centrifuged (10 000×g, 10 min, 4° C.) to remove cell debris, transferred to fresh tubes and stored at −70° C. Concentrations of t-PA antigen in conditioned media were determined using the commercially available TriniLize t-PA antigen ELISA (Trinity Biotech, Bray, Ireland) according to manufacturer's protocol.

[2] = system: TNF-alpha suppressed t-PA production in HUVECs; experiment: Counter-acting TNF-alpha (0.1 ng/ml) suppression of t-PA in HUVEC; assay type: cell-based, human; conditions: for concentration completely normalizing TNF-alpha suppressed t-PA production / concentration partly reversing TNF-alpha suppression of t-PA production: TNF-alpha 0.1 ng/ml 48 h, compound last 24 h
Procedure: Human umbilical vein endothelial cells (HUVECs) were prepared and cultured as described in Example 1. Confluent HUVECs were exposed to low concentrations of TNF-alpha (0.1 ng/ml) (Sigma-Aldrich) for 24 h. Thereafter, medium was replaced by fresh EGM-2 containing TNF-alpha and low concentrations of belinostat (10 nM to 300 nM) and incubated for 24 h. After 24 h, cells and conditioned media were harvested. Total RNA was prepared and RNA and secreted protein quantified as in Example 1.
We have previously shown that proinflammatory cytokines e.g. TNF-alpha and IL-1b suppress t-PA production in endothelial cells. We then investigated if VPA could reverse a TNF-alpha suppressed t-PA response. Human umbilical vein endothelial cells (HUVECs) were prepared by collagenase treatment of fresh umbilical cords (Jaffe, E. A., et al. J Clin Invest 52, 2745-2756 (1973)) obtained from the maternity ward of the Sahlgrenska University hospital, Gothenburg, Sweden. Cells were cultured in EGM-2 medium (Lonza, Basel, Switzerland) and all experiments were performed in passage 1 of subcultivation. Confluent HUVECs were pre-treated with 0.1 ng/ml human recombinant TNF-alpha (Sigma-Aldrich) for 24 hours then exposed to optimal concentrations VPA in complete medium. After incubation with the VPA and TNF-alpha for an additional 24 hours, cells and conditioned media were harvested.
as §1
as §2, with “collected, centrifuged (10,000×g, 10 min,” for “collected, centrifuged (10 000×g, 10 min,”, “according to the manufacturer's protocol.” for “according to manufacturer's protocol.”

[3] = system: high-risk patients with recent deep vein thrombosis or pulmonary embolus; experiment: Clinical outcome study for prevention of recurrent venous thromboembolic events; assay type: in vivo, human
Procedure: This study is performed in high-risk patients who have experienced a recent deep vein thrombosis or circulatory stable pulmonary embolus to investigate the preventive effect of Vorinostat treatment on the risk for recurrent venous thrombotic events. Patients with a cancer diagnosis who presents with a first episode of a proximal deep venous thrombosis without unstable pulmonary embolism will be included. The patients will receive conventional treatment (i.e warfarin for 3-6 months) and thereafter included in the study. Patients are randomized in a parallel study design to receive double-blind oral treatment with 10 mg Vorinostat or placebo daily, in addition to optimal conventional treatment. The event rate is monitored by Kaplan-Meyer statistics. The primary efficacy endpoint is the composite measure of either mortality, or recurrent deep venous thrombosis or pulmonary embolism. The study is event-driven to a total of 180 events in the placebo group. […] Thus, this study confirms the clinical efficacy and feasibility of using Vorinostat for secondary prevention of venous thromboembolism.
This study is performed in high-risk patients who have experienced a recent deep vein thrombosis or circulatory stable pulmonary embolus to investigate the preventive effect of VPA treatment on the risk for recurrent venous thrombotic events. Patients with a cancer diagnosis and low grade inflammation who present with a first episode of a proximal deep venous thrombosis without unstable pulmonary embolism are included. The patients receive conventional treatment (i.e warfarin for 3-6 months) and thereafter are included in the study. Patients are randomized in a parallel study design to receive double-blind oral treatment with 100 mg valproic acid or placebo twice daily, in addition to optimal conventional treatment. The event rate is monitored by Kaplan-Meyer statistics. The primary efficacy endpoint is the composite measure of either mortality, or recurrent deep venous thrombosis or pulmonary embolism. The study is event-driven to a total of 180 events in the placebo group. […] Thus, this study confirms the clinical efficacy and feasibility of using VPA for secondary prevention of venous thromboembolism.

[4] = HUVEC, present-tense Examples 12-18
[5] = daily oral dose: Vorinostat 10 mg, Givinostat 2 mg, Panobinostat 0.5 mg, PCI-24781 2 mg, JNJ-26481585 0.2 mg, Mocetinostat 2 mg, SB939 0.4 mg, CXD101 10 mg, Belinostat example prints 10 mg Vorinostat

## Cn1cc(CNCC2CCN(c3ncc(C(=O)NO)cn3)CC2)c2ccccc21 [JNJ-26481585, N-hydroxy-2-(4-((((1-methyl-1H-indol-3-yl)methyl)amino)methyl)piperidin-1-yl)pyrimidine-5-carboxamide]
[1]
  concentration at which a significant increase of t-PA mRNA levels was seen: 3 nM
  concentration of maximal effect on t-PA expression: around 30 nM
  increase of t-PA expression at maximal effect: approximately 6 times
[1]; present-tense Examples 3-9
  concentration at which a significant increase of t-PA mRNA levels is seen: 1 nM
  concentration of maximal effect on t-PA expression: around 30 nM
  increase of t-PA expression at maximal effect: approximately 10 times
[2]; [4]
  concentration completely normalizing TNF-alpha suppressed t-PA production: 5 nM
  concentration partly reversing TNF-alpha suppression of t-PA production: 1 nM
[3]; [5]
  reduction of risk for recurrent venous thrombotic events, in addition to conventional therapy: approximately 30%

## CN(C)Cc1c(C(=O)NCCOc2ccc(C(=O)NO)cc2)oc2ccccc12 [PCI-24781, 3-(dimethylaminomethyl)-N-[2-[4-(hydroxycarbamoyl)phenoxy]ethyl]-1-benzofuran-2-carboxamide]
[1]
  concentration at which a significant increase of t-PA mRNA levels was seen: 100 nM
  concentration of maximal effect on t-PA expression: around 1 μM
  increase of t-PA expression at maximal effect: approximately 6 times
[1]; present-tense Examples 3-9
  concentration at which a significant increase of t-PA mRNA levels is seen: 1 nM
  concentration of maximal effect on t-PA expression: around 0.3 μM
  increase of t-PA expression at maximal effect: approximately 10 times
[2]; [4]
  concentration completely normalizing TNF-alpha suppressed t-PA production: 200 nM
  concentration partly reversing TNF-alpha suppression of t-PA production: 10 nM
[3]; [5]
  reduction of risk for recurrent venous thrombotic events, in addition to conventional therapy: approximately 30%

## O=C(/C=C/c1cccc(S(=O)(=O)Nc2ccccc2)c1)NO [Belinostat]
[1]
  concentration at which a significant increase of t-PA mRNA levels was seen: 10 nM
  concentration of maximal effect on t-PA expression: around 3 μM
  increase of t-PA expression at maximal effect: approximately 10 times
[2]; HUVEC
  concentration completely normalizing TNF-alpha suppressed t-PA production: 200 nM
  concentration partly reversing TNF-alpha suppression of t-PA production: 50 nM
[2]; TNF-alpha treated endothelium
  concentrations needed to off-set the inhibition of TNF-alpha on t-PA expression: 0.05 to 0.2 µM
[3]; [5]
  reduction of risk for recurrent venous thrombotic events, in addition to conventional therapy: approximately 30%

## CCN(CC)Cc1ccc2cc(COC(=O)Nc3ccc(C(=O)NO)cc3)ccc2c1.Cl [Givinostat]
[1]
  concentration at which a significant increase of t-PA mRNA levels was seen: 30 nM
  concentration of maximal effect on t-PA expression: 0.3 µM
  increase of t-PA expression at maximal effect: 10 times
[1]; present-tense Examples 3-9
  concentration at which a significant increase of t-PA mRNA levels is seen: 10 nM
  concentration of maximal effect on t-PA expression: around 0.3 μM
  increase of t-PA expression at maximal effect: approximately 10 times
[2]; [4]
  concentration completely normalizing TNF-alpha suppressed t-PA production: 100 nM
  concentration partly reversing TNF-alpha suppression of t-PA production: 30 nM
[3]; [5]
  reduction of risk for recurrent venous thrombotic events, in addition to conventional therapy: approximately 30%

## O=C(CCCCCCC(=O)Nc1ccccc1)NO [Vorinostat]
[1]
  concentration at which a significant increase of t-PA mRNA levels was seen: 50 nM
  concentration of maximal effect on t-PA expression: around 3 μM
  increase of t-PA expression at maximal effect: approximately 7 times
[2]; HUVEC
  concentration completely normalizing TNF-alpha suppressed t-PA production: 300 nM
  concentration partly reversing TNF-alpha suppression of t-PA production: 50 nM
[3]; [5]
  reduction of risk for recurrent venous thrombotic events, in addition to conventional therapy: approximately 30%

## Nc1ccccc1NC(=O)c1ccc(CNc2nccc(-c3cccnc3)n2)cc1 [Mocetinostat]
[1]
  concentration at which a significant increase of t-PA mRNA levels was seen: 100 nM
  concentration of maximal effect on t-PA expression: around 3 μM
  increase of t-PA expression at maximal effect: approximately 15 times
[1]; present-tense Examples 3-9
  concentration at which a significant increase of t-PA mRNA levels is seen: 10 nM
  concentration of maximal effect on t-PA expression: around 3 μM
  increase of t-PA expression at maximal effect: approximately 10 times
[2]; [4]
  concentration completely normalizing TNF-alpha suppressed t-PA production: 300 nM
  concentration partly reversing TNF-alpha suppression of t-PA production: 10 nM
[3]; [5]
  reduction of risk for recurrent venous thrombotic events, in addition to conventional therapy: approximately 30%

## Cc1nn(C)cc1CN1CCC(c2ccc(C(=O)Nc3ccccc3N)cc2)CC1 [CXD101]
[1]; present-tense Examples 3-9
  concentration at which a significant increase of t-PA mRNA levels is seen: 10 nM
  concentration of maximal effect on t-PA expression: around 3 μM
  increase of t-PA expression at maximal effect: approximately 10 times
[2]; [4]
  concentration completely normalizing TNF-alpha suppressed t-PA production: 300 nM
  concentration partly reversing TNF-alpha suppression of t-PA production: 10 nM
[3]; [5]
  reduction of risk for recurrent venous thrombotic events, in addition to conventional therapy: approximately 30%

## CCCC(CCC)C(=O)O [VPA, valproic acid]
[2]; HUVEC, TNF-alpha 0.1 ng/ml, VPA additional 24 h
  concentration achieving complete normalization of TNF-alpha suppressed t-PA mRNA: 0.35 mM
[2]; TNF-suppressed cells
  concentrations needed to reverse the effect of TNF-alpha on t-PA expression: below 0.35 mM
[3]; cancer diagnosis and low grade inflammation, 100 mg valproic acid orally twice daily
  reduction of risk for recurrent venous thrombotic events, in addition to conventional therapy: approximately 30%
